Results from ChEMBL document CHEMBL2396605 (Bioorg Med Chem Lett, 2013).
pIC50: −log10 of the molar value.

Assays:
D-amino-acid oxidase [1] = target: D-amino-acid oxidase (Homo sapiens, UniProt P14920); experiment: Inhibition of human recombinant DAAO expressed in HEK293 cell lysate assessed as D-Serine conversion to H2O2 after 20 mins by spectrophotometric analysis; assay type: cell-free
D-amino-acid oxidase [2] = target: D-amino-acid oxidase (Sus scrofa, UniProt P00371); experiment: Inhibition of pig DAAO assessed as D-Serine conversion to H2O2 by spectrophotometric analysis
Sequence of D-amino-acid oxidase (Sus scrofa, UniProt P00371) (P00371 whole entry): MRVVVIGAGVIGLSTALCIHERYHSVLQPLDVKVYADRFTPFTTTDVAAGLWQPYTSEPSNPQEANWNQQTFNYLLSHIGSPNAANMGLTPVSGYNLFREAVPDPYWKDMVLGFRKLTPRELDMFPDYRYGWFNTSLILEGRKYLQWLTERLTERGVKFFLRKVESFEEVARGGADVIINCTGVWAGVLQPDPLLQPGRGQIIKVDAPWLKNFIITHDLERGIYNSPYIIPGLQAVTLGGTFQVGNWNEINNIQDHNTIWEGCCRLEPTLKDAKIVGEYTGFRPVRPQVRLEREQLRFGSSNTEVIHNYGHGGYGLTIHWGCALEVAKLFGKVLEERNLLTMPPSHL

Sequence of D-amino-acid oxidase (Homo sapiens, UniProt P14920) (P14920 whole entry): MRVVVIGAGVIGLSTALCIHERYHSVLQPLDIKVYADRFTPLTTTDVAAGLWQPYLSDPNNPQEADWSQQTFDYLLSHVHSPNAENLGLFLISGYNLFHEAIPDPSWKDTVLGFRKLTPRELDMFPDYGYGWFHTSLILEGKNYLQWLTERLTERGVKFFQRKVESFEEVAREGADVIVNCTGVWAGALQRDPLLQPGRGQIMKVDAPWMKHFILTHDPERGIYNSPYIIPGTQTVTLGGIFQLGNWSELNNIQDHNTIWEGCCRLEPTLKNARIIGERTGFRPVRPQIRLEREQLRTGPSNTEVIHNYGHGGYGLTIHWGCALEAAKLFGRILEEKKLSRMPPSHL

Row | pIC50 (D-amino-acid oxidase [1]) | pIC50 (D-amino-acid oxidase [2]) | SMILES
1 | < 4.00 |  | CCOCc1cc(=O)c(O)co1
2 | 6.30 |  | O=c1cc(CCc2ccccc2)occ1O
3 | 6.70 |  | O=c1cc(CSc2ccccc2)occ1O
4 | 6.05 |  | O=c1cc(COc2ccccc2)occ1O
5 | 5.40 |  | O=c1cc(CSc2ncccn2)occ1O
6 | 6.10 |  | O=c1cc(COc2ccc3ccccc3c2)occ1O
7 | < 4.00 |  | O=c1cc(COC2CCCCO2)occ1O (stereo not drawn)
8 | < 4.00 |  | COc1coc(CO)cc1=O
9 | 4.70 |  | O=c1cc(COCc2ccccc2)occ1O
10 | 6.52 |  | O=c1cc(CSc2ccc(F)cc2)occ1O
11 | 6.30 |  | O=c1cc(COc2ccc(Cl)c(Cl)c2)occ1O
12 | 6.05 |  | O=c1cc(COc2cccc3ccccc23)occ1O
13 | 6.70 |  | O=c1cc(CSc2ccc(Cl)cc2)occ1O
14 | 7.00 |  | O=c1cc(CSc2ccc(Cl)c(Cl)c2)occ1O
15 | < 4.00 |  | O=c1ccn(CCc2ccccc2)cc1O
16 |  | > 6.00 | O=C(O)c1cc(CCc2ccccc2)c[nH]1
17 | 4.30 |  | COCc1cc(=O)c(O)co1
18 |  | > 5.00 | O=C(O)c1ccc[nH]1
19 |  | > 6.00 | O=C(O)c1cc(CCc2ccccc2)[nH]n1
20 | 5.52 |  | O=c1cc(COc2cccnc2)occ1O
21 | 6.15 |  | O=c1cc(COc2ccc(Cl)cc2)occ1O
22 |  | > 4.00 | O=C(O)c1cc[nH]n1
23 | 6.10 |  | O=c1cc(COc2ccc(F)cc2)occ1O
